What all share (test): Kinase Selectivity Assay (CEREP, HTRF)
Holding throughout (format): biochemical

The target of one experiment is Fyn kinase (Homo sapiens, UniProt P06241). The following applies: read-out: % Inhibition at 10 μM Concentration, Fyn. Here is the method:
(§1) kinase, ROCK2, RSK2, Src kinase, Syk, and TRKA. The % Inhibition was determined

The target in a further experiment is PDGFRb kinase (Homo sapiens, UniProt P09619). As to conditions: read-out: % Inhibition at 10 μM Concentration, PDGFRbeta. Here is the method: as §1
For the next experiment, the target named is T1, FGFR4 kinase (Homo sapiens, UniProt P22455).
T1 construct: CEREP, France (ran the assays)
As to conditions: read-out: % Inhibition at 10 μM Concentration, FGFR4. As to the method: as §1

A further experiment concerns the target T2, CaMK4 (Homo sapiens, UniProt Q16566).
T2 construct: CEREP, France (ran the assays)
T2 sequence (Q16566 1-473): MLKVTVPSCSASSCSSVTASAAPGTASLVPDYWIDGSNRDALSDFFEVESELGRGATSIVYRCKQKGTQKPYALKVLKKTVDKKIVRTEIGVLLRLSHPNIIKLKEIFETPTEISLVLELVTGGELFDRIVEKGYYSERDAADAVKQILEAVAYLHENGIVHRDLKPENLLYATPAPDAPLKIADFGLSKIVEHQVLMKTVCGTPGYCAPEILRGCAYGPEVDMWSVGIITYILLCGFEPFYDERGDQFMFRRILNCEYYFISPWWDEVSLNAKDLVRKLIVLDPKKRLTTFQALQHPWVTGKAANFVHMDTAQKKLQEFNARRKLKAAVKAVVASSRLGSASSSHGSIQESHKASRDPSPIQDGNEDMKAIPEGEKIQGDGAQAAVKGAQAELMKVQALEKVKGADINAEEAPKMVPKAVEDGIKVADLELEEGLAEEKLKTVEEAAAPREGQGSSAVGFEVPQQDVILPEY
The following applies: read-out: % Inhibition at 10 μM Concentration, CaMK4. As to the method: as §1

Another experiment has as its target T3, CaMK2a (Homo sapiens, UniProt Q9UQM7).
T3 construct: CEREP, France (ran the assays)
The following applies: read-out: % Inhibition at 10 μM Concentration, CaMK2alpha. As to the method: as §1

For another experiment, the target named is p38a kinase (Homo sapiens, UniProt Q16539). As to conditions: read-out: % Inhibition at 10 μM Concentration, p38alpha. Here is the method:
as §1

For a further experiment, the target named is PKCg (Homo sapiens, UniProt P05129). The following applies: read-out: % Inhibition at 10 μM Concentration, PKCgamma. As to the method:
as §1

For a further experiment, the target named is IRK (InsR) (Homo sapiens, UniProt P06213). As to conditions: read-out: % Inhibition at 10 μM Concentration, IRK (InsR). As to the method:
as §1

For another experiment, the target named is KDR kinase (VEGFR2) (Homo sapiens, UniProt P35968). As to conditions: read-out: % Inhibition at 10 μM Concentration, KDR (VEGFR2). Here is the method: as §1
Sequence of KDR kinase (VEGFR2) (P35968 20-1356): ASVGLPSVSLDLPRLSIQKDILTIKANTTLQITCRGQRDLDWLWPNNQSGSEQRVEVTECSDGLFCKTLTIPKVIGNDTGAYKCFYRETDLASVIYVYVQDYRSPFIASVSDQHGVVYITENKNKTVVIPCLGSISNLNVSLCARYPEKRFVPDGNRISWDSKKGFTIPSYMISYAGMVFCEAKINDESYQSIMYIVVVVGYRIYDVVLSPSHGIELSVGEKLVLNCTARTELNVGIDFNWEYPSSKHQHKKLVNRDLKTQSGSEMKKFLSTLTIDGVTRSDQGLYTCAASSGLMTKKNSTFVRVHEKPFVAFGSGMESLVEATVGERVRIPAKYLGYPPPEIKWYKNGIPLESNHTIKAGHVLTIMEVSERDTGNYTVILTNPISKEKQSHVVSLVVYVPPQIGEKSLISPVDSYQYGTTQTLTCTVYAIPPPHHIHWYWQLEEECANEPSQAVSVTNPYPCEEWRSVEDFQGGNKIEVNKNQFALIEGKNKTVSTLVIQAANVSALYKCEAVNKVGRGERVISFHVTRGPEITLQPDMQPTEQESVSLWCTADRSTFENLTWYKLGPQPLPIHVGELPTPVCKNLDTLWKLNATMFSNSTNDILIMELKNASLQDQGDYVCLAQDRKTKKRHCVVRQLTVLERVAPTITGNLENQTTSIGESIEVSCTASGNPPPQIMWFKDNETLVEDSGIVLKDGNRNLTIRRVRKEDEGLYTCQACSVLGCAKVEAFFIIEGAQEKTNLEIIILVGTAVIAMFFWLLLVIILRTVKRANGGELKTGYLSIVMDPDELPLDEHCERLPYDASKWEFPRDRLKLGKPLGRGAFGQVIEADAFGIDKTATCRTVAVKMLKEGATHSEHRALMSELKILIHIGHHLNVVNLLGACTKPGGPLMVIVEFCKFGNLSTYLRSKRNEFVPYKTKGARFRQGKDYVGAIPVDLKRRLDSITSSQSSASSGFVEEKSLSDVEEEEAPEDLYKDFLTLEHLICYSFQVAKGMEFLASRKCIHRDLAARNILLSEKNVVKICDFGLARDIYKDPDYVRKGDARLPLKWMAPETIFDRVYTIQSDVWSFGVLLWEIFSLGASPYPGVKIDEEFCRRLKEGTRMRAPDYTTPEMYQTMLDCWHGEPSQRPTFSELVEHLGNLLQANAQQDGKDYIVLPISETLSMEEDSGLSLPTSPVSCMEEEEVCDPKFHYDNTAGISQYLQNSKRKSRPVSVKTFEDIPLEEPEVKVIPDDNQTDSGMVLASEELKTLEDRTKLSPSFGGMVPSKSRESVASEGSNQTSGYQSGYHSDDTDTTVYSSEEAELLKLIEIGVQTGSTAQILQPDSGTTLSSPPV
Another experiment addresses T4, BMX kinase (Etk) (Homo sapiens, UniProt P51813).
T4 construct: CEREP, France (ran the assays)
T4 sequence (P51813 1-675): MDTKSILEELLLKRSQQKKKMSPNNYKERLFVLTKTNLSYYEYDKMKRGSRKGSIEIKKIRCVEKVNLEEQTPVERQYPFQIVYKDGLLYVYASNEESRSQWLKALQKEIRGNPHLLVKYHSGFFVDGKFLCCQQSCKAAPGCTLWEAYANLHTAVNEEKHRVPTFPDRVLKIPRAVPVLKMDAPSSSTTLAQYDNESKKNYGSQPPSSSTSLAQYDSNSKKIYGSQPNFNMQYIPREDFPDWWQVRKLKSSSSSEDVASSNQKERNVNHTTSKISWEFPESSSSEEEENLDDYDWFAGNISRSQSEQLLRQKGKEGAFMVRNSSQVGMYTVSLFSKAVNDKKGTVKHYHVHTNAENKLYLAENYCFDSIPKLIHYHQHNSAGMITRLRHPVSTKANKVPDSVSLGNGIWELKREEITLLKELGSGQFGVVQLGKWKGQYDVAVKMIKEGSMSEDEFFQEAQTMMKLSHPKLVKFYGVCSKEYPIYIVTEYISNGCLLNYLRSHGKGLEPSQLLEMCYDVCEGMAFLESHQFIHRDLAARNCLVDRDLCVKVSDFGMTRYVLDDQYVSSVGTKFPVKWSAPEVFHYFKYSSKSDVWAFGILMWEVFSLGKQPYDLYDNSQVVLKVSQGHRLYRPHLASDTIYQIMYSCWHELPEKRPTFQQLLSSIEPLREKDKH
As to conditions: read-out: % Inhibition at 10 μM Concentration, BMX (Etk). Here is the method: as §1

The next experiment has as its target RSK2 (Homo sapiens, UniProt P51812). The following applies: read-out: % Inhibition at 10 μM Concentration, RSK2. Here is the method:
as §1

The values below come from US8765748B2, “Indazolyl, benzimidazolyl, benzotriazolyl substituted indolinone derivatives as kinase inhibitors useful in the treatment of cancer” (University Health Network, priority 2007, dated 2014).

T3 sequence (Q9UQM7 whole entry): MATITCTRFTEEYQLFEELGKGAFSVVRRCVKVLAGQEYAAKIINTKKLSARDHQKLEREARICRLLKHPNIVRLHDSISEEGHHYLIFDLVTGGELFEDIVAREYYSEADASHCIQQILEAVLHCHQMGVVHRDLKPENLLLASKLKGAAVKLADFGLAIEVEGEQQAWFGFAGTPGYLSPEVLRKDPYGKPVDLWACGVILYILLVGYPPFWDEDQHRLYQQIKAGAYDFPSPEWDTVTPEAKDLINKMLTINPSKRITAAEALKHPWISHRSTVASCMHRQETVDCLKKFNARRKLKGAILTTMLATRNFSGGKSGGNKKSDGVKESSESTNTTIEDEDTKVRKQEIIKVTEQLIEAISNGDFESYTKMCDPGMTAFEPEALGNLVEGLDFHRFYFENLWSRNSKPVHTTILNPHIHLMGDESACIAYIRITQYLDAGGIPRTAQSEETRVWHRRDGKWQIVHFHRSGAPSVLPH
Sequence of IRK (InsR) (P06213 28-1382): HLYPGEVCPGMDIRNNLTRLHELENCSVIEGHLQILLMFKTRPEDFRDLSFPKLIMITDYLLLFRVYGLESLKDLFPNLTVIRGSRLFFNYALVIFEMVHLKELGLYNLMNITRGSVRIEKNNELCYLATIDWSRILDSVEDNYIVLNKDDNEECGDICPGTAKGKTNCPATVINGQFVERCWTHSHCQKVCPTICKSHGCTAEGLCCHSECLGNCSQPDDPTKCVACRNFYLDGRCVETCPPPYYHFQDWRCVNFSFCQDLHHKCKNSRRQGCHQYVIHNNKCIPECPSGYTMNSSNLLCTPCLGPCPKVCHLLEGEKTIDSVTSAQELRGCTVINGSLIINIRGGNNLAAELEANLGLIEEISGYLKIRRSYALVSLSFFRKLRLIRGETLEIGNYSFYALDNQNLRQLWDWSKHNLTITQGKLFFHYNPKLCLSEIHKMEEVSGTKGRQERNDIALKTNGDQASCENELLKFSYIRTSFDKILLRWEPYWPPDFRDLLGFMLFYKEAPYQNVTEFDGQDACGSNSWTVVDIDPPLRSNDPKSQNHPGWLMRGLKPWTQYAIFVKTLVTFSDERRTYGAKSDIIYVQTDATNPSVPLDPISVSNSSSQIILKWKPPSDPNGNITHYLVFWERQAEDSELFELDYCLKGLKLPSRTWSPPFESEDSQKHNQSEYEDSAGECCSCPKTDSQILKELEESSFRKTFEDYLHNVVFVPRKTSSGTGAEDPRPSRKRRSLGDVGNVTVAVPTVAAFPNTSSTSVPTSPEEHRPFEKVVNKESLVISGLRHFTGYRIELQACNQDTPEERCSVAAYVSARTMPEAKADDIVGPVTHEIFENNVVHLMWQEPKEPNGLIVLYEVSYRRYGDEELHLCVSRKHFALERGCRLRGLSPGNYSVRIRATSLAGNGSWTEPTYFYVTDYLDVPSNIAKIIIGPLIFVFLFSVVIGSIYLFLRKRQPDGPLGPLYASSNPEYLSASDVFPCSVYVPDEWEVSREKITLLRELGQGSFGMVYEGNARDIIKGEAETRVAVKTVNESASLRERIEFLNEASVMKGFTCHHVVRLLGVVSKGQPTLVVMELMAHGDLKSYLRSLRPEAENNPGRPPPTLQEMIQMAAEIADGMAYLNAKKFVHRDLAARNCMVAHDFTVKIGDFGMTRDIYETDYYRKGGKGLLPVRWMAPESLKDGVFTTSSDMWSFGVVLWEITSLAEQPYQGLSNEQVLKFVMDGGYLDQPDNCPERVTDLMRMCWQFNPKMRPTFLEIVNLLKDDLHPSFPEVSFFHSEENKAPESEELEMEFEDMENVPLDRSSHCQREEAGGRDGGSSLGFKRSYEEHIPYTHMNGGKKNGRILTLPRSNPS
Sequence of p38a kinase (Q16539 whole entry): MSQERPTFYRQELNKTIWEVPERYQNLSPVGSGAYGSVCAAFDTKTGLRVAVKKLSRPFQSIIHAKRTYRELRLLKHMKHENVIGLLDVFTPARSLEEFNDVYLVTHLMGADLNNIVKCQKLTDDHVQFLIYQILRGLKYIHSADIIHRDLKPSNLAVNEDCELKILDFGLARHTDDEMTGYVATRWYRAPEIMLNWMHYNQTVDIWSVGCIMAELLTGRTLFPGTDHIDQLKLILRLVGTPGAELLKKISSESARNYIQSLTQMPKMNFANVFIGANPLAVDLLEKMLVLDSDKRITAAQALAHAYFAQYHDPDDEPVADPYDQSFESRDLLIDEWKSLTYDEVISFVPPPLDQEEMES
Sequence of RSK2 (P51812 whole entry): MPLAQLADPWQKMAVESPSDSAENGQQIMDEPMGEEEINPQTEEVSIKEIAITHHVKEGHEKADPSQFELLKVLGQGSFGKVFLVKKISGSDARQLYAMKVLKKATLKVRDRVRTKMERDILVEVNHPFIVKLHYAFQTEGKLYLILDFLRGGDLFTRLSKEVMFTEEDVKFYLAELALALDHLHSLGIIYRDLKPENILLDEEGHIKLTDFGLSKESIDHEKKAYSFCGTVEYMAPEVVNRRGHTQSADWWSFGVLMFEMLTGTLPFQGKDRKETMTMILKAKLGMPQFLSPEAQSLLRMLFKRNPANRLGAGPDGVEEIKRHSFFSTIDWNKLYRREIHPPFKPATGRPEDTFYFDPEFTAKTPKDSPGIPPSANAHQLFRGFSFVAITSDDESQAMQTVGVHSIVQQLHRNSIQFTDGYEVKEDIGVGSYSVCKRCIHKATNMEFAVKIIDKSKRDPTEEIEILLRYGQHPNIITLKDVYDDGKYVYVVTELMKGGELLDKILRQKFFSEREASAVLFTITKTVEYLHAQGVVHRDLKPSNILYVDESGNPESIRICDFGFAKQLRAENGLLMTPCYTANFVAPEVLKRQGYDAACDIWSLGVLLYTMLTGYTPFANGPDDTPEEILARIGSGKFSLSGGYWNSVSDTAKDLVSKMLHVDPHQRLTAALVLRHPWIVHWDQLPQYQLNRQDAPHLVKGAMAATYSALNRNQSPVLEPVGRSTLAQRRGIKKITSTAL

As for `O=C1Nc2ccccc2C1=Cc1ccc2c(/C=C/c3ccccn3)n[nH]c2c1` (mixture of isomers) [Example A41, (E and Z)-3-((3-((E)-2-(pyridin-2-yl)vinyl)-1H-indazol-6-yl)methylene)indolin-2-one], the inhibition at 10 µM on Fyn kinase was found to be 91%; at PDGFRb kinase it was 100%; at FGFR4 kinase, 38%; at CaMK4 it was 27%; at CaMK2a, 31%; on p38a kinase, 16%. Also, the inhibition at 10 µM was determined as 0% at PKCg; 34% on IRK (InsR); 100% at KDR kinase (VEGFR2); 53% on BMX kinase (Etk); 38% at RSK2.
Take `COc1ccc2c(c1)C(=Cc1ccc3c(-c4ccc(N5CCN(C)CC5)nc4)n[nH]c3c1)C(=O)N2` (mixture of isomers) [Example A97, (E and Z)-5-methoxy-3-((3-(6-(4-methylpiperazin-1-yl)pyridin-3-yl)-1H-indazol-6-yl)methylene)indolin-2-one]: the inhibition at 10 µM on Fyn kinase worked out at 13%; at PDGFRb kinase, 0%; at FGFR4 kinase, 30%; on CaMK4, 2%; at CaMK2a it was 14%; at p38a kinase it was 11%. The inhibition at 10 µM on PKCg turned out to be 0%; on IRK (InsR) it was 9%; on KDR kinase (VEGFR2), 93%; on BMX kinase (Etk) it was 9%; at RSK2, 37%.
As for `O=C1Nc2ccccc2/C1=C\c1ccc2[nH]nnc2c1` [Example A1, (E)-3-((1H-benzo[d][1,2,3]triazol-5-yl)methylene)indolin-2-one], the inhibition at 10 µM on Fyn kinase is 24%; at PDGFRb kinase, 46%; at FGFR4 kinase it was 18%; on CaMK4 it was 3%; at CaMK2a it was 4%; on p38a kinase it was -8%. Also, the inhibition at 10 µM came to 9% at PKCg, 13% at IRK (InsR), 59% on KDR kinase (VEGFR2) and 4% at RSK2.
Consider `O=C1Nc2ccccc2/C1=C\c1ccc2cn[nH]c2c1` [Example A5, (E)-3-((1H-indazol-6-yl)methylene)indolin-2-one], for which the inhibition at 10 µM on Fyn kinase was 5%; on PDGFRb kinase it was 19%; on FGFR4 kinase, -4%; at CaMK4, 26%; at CaMK2a, -3%; at p38a kinase it was 18%. Moreover, the inhibition at 10 µM at PKCg is -6%; on IRK (InsR) it was 12%; on KDR kinase (VEGFR2), 29%; at BMX kinase (Etk) it was -3%; on RSK2 it was 1%.
As to `O=C1Nc2ccccc2/C1=C\c1ccc2c(/C=C/c3ccccc3Cl)n[nH]c2c1` [Example A60, (E)-3-((3-((E)-2-chlorostyryl)-1H-indazol-6-yl)methylene)indolin-2-one], the inhibition at 10 µM was 70% at Fyn kinase; 2% at PDGFRb kinase; 6% at FGFR4 kinase; -15% at CaMK4; -2% on CaMK2a; 1% at p38a kinase. For the same compound, the inhibition at 10 µM on PKCg is 3%; at IRK (InsR), 6%; on KDR kinase (VEGFR2), 8%; on BMX kinase (Etk), 18%; on RSK2, 0%.
